# Read-outs that look alike come from different tables or passages of the source.
# Test system: human rhabdomyosarcoma RH-30
# Format: in vivo
# Details: for Average body weight change in % per mouse at nadir / Drug death (Day of death) / Regressions Complete / Regressions Partial / Tumor free survivors at day 120 / day of nadir / Biological interpretation / ΔT/ΔC in % (day 27): 18
# Method: This efficacy may be quantified, for example, as changes in tumor volume for each treated (T) and control (C) group, which are calculated for each animal and each day by subtracting the tumor volume on the day of first treatment (staging day) from the tumor volume on the specified observation day. This allows calculating the tumor growth inhibition: ΔT/ΔC=(median delta T/median delta C)×100. Individual tumor volume changes from baseline are thereafter analyzed by a non-parametric two-way ANOVA-TYPE (with factors: group and repeated days) followed by a post-hoc contrasts analysis, with Bonferroni-Holm adjustment for multiplicity, comparing all treated groups to the control group. […] A probability less than 5% (p<0.05) was considered as significant.
# Based on the National Cancer Institute (NCl) standards, a ΔT/ΔC≦40% is the minimal level required to declare activity.
# The tumor doubling time (in days; Td) was estimated from the plot of the log linear growth of the control group tumors in exponential growth (100 to 1000 mm^3 range) [T. H. Corbett et al., Cancer, 40: 2660-2680 (1977); F. M. Schabel et al., Cancer Drug Development, Part B, Methods in Cancer Research, 17: 3-51, New York, Academic Press Inc. (1979)].
# This efficacy may also be quantified by the number of tumor regressions observed after therapy. Individual mice reporting a tumor volume ≦50% of the Day 0 measurement for two consecutive measurements over a seven day period were considered partial responders (PR). Individual mice lacking palpable tumors (<4×4 mm^2 for two consecutive measurements over a seven day period) were classified as complete responders (CR); a CR that persisted until study completion was considered a tumor-free survivor (TFS).
# The animals subjected to the experiment are subcutaneously grafted unilaterally with approximately 30 mg of a tumor fragment on day 0. The animals are implanted with a human tumor xenografted in immunocompromized mice. Several days post tumor implantation, mice are randomized according to their body weight to the different groups of treatments and controls. The animals are observed every day. […] The groups are then weighed once or twice a week until the end of the trial.
# The tumors are measured 1 to 5 times a week, depending on the tumor doubling time, until the tumor reaches approximately 1,000 mm^3, or until the animal dies (if this occurs before the tumor reaches 1,000 mm^3). The animals are necropsied immediately after euthanasia or death.
# The selected tumor model was a human rhabdomyosarcoma RH-30, xenografted in SCID mice [Douglass E C, et al. Cytogenet Cell Genet. 1987; 45(3-4):14855.].
# Treatment solutions were prepared first by mixing 1 volume of ethanolic stock solution and 1 volume of polysorbate 80, then by adding 18 volumes of glucose 5% in water.
# [1] = 3.5 mg/kg per injection (total 7.0) IV days 14
# [2] = 3.5 mg/kg per injection (total 7.0) IV days 14, listed as DOCETAXEL
# [3] = 3.5 mg/kg per injection (total 7.0) IV days 14, listed as docetaxel
# [4] = 5.6 mg/kg per injection (total 11.2) IV days 14
# [5] = 5.6 mg/kg per injection (total 11.2) IV days 14, listed as DOCETAXEL
# [6] = 9.0 mg/kg per injection (total 18) IV days 14
# [7] = 9.0 mg/kg per injection (total 18) IV days 14, listed as DOCETAXEL
# [8] = 14.5 mg/kg per injection (total 29) IV days 14
# [9] = 14.5 mg/kg per injection (total 29) IV days 14, listed as DOCETAXEL
# [10] = 14.5 mg/kg per injection (total 29) IV days 14, listed as docetaxel
compound,measurement,setting,value
"CC(=O)O[C@@]12CO[C@@H]1C[C@H](O)[C@@]1(C)C(=O)[C@H](O)C3=C(C)[C@@H](OC(=O)[C@H](O)[C@@H](NC(=O)OC(C)(C)C)c4ccccc4)C[C@@](O)([C@@H](OC(=O)c4ccccc4)[C@H]21)C3(C)C [Docetaxel, docetaxel]",Average body weight change in % per mouse at nadir,[1],−1.8%
same,Drug death (Day of death),[1],0/6
same,Regressions Complete,[1],0/6
same,Regressions Partial,[1],0/6
same,Tumor free survivors at day 120,[1],0/6
same,day of nadir,[1],(15) day
same,Biological interpretation,[2],Inactive
same,ΔT/ΔC in % (day 27),[2],77%
same,Biological interpretation,[3],inactive
same,ΔT/ΔC in % (day 27),[3],> 40%
same,Tumor volume changes from baseline: Median (nMad),"3.5 mg/kg, day 19",477
same,Tumor volume changes from baseline: Median (nMad),"3.5 mg/kg, day 20",475
same,Tumor volume changes from baseline: Median (nMad),"3.5 mg/kg, day 22",495.5
same,Tumor volume changes from baseline: Median (nMad),"3.5 mg/kg, day 25",621.5
same,Tumor volume changes from baseline: Median (nMad),"3.5 mg/kg, day 27",736
same,Tumor volume changes from baseline: Median (nMad),"3.5 mg/kg, day 29",905.5
same,Average body weight change in % per mouse at nadir,[4],−12.1%
same,Drug death (Day of death),[4],0/6
same,Regressions Complete,[4],0/6
same,Regressions Partial,[4],4/6
same,Tumor free survivors at day 120,[4],0/6
same,day of nadir,[4],(25) day
same,Biological interpretation,[5],Highly
same,ΔT/ΔC in % (day 27),[5],<0%
same,Biological interpretation,"5.6 mg/kg per injection (total 11.2) IV days 14, listed as docetaxel",highly active
same,Tumor volume changes from baseline: Median (nMad),"5.6 mg/kg, day 18",218 (84.5)
same,Tumor volume changes from baseline: Median (nMad),"5.6 mg/kg, day 19",289 (57.1)
same,Tumor volume changes from baseline: Median (nMad),"5.6 mg/kg, day 20",409.5
same,Tumor volume changes from baseline: Median (nMad),"5.6 mg/kg, day 22",405.5
same,Tumor volume changes from baseline: Median (nMad),"5.6 mg/kg, day 25",−30.5
same,Tumor volume changes from baseline: Median (nMad),"5.6 mg/kg, day 29",−47 (89.7)
same,Tumor volume changes from baseline: Median (nMad),"5.6 mg/kg, day 33",67 (262.4)
same,Tumor volume changes from baseline: Median (nMad),"5.6 mg/kg, day 39",454.5
same,Tumor volume changes from baseline: Median (nMad),"5.6 mg/kg, day 41",712
same,Tumor volume changes from baseline: Median (nMad),"5.6 mg/kg, day 43",1039.5
same,Tumor volume changes from baseline: Median (nMad),"5.6 mg/kg, day 35",129
same,Average body weight change in % per mouse at nadir,[6],−11.2%
same,Drug death (Day of death),[6],0/6
same,Regressions Complete,[6],0/6
same,Regressions Partial,[6],2/6
same,Tumor free survivors at day 120,[6],0/6
same,day of nadir,[6],(25) day
same,Biological interpretation,[7],Highly
same,ΔT/ΔC in % (day 27),[7],<0%
same,Biological interpretation,"9.0 mg/kg per injection (total 18) IV days 14, listed as docetaxel",highly active
same,Tumor volume changes from baseline: Median (nMad),"9 mg/kg, day 18",202 (98.6)
same,Tumor volume changes from baseline: Median (nMad),"9 mg/kg, day 19",202 (71.9)
same,Tumor volume changes from baseline: Median (nMad),"9 mg/kg, day 20",325
same,Tumor volume changes from baseline: Median (nMad),"9 mg/kg, day 22",290.5
same,Tumor volume changes from baseline: Median (nMad),"9 mg/kg, day 25",115.5
same,Tumor volume changes from baseline: Median (nMad),"9 mg/kg, day 29",119.5
same,Tumor volume changes from baseline: Median (nMad),"9 mg/kg, day 33",272
same,Tumor volume changes from baseline: Median (nMad),"9 mg/kg, day 39",676
same,Tumor volume changes from baseline: Median (nMad),"9 mg/kg, day 41",904.5
same,Tumor volume changes from baseline: Median (nMad),"9 mg/kg, day 43",909
same,Average body weight change in % per mouse at nadir,[8],−17.6%
same,Drug death (Day of death),[8],0/6
same,Regressions Complete,[8],3/6
same,Regressions Partial,[8],5/6
same,day of nadir,[8],(27) day
same,ΔT/ΔC in % (day 27),[8],1%
same,Biological interpretation,[9],Very
same,Tumor free survivors at day 120,[9],0/6
same,Biological interpretation,[10],very active
same,Tumor free survivors at day 120,[10],without TFS
same,Tumor volume changes from baseline: Median (nMad),"14.5 mg/kg, day 18",166.5
same,Tumor volume changes from baseline: Median (nMad),"14.5 mg/kg, day 19",195 (83)
same,Tumor volume changes from baseline: Median (nMad),"14.5 mg/kg, day 25",154.5
same,Tumor volume changes from baseline: Median (nMad),"14.5 mg/kg, day 27",13 (67.5)
same,Tumor volume changes from baseline: Median (nMad),"14.5 mg/kg, day 29",87 (100.8)
same,Tumor volume changes from baseline: Median (nMad),"14.5 mg/kg, day 33",17 (111.2)
same,Tumor volume changes from baseline: Median (nMad),"14.5 mg/kg, day 46",18.5
same,Tumor volume changes from baseline: Median (nMad),"14.5 mg/kg, day 50",485
same,Tumor volume changes from baseline: Median (nMad),"14.5 mg/kg, day 35",−80 (63.8)
same,Tumor volume changes from baseline: Median (nMad),"14.5 mg/kg, day 39",−112
same,Tumor volume changes from baseline: Median (nMad),"14.5 mg/kg, day 41",−96 (78.6)
same,Tumor volume changes from baseline: Median (nMad),"14.5 mg/kg, day 43",−72.5

# From patent US20140350273A1, “PEDIATRIC USES OF CABAZITAXEL” (AVENTIS PHARMA S.A., priority 2012, published 2014)
